# US12522635B2, “Amyloid peptide variants” (Loyola Marymount University, priority 2019, dated 2026)
# Experiments:
# RIN-m cells = test: MTT viability assay, peptide alone or mixed with hIAPP; assay type: cell-based; conditions: for rescue / protection of cells from hIAPP toxicity (words): hIAPP mixed with peptide 1:1, MTT assay; for toxicity of peptide to cells: peptide alone, MTT assay, pancreatic (RIN-m) cells
# Description: Cytoprotection can likewise be measured by a number of assays known to the art. One such assay is the MTT assay, which is a colorimetric assay for assessing cell metabolic activity. NAD(P)H-dependent cellular oxidoreductase enzymes in the cytosolic compartment of a cell reduces the tetrazolium dye MTT 3-(4,5-dimethylthiazol-2-yl)-2,5-diphenyltetrazolium bromide to an insoluble form, formazan, which has a purple color. The reduction of MTT (and other tetrazolium dyes) depends on the cellular metabolic activity, so a loss of color in the course of performing an MTT assay indicates low metabolic activity, and is thus an indicator of cell damage and death.
# To test cell viability, a MTT colorimetric assay measuring the conversion of yellow tetrazolium salt into purple formazan crystal catalyzed by a mitochondrial reductase was used. Cell viability studies were performed using RIN-m cells (ATCC, CRL-2057). An equal number of RIN-m cells were plated in triplicate and incubated overnight in 96-well plates. The next day, fresh RPMI-1640 with phenol red supplemented with 10% FBS was added to cells. Hexafluoroisopropanol (HFIP) was removed from each individual human and animal IAPP using a centrivap concentrator (LabOnco). All IAPP peptide samples were re-suspended in RPMI-1640 with 10% FBS. To ensure even re-suspension, each resulting IAPP-containing vial was scraped with a pipette tip six times and vortexed (Vortex Genie Mixer) for 15 seconds. The whole process, from drying each IAPP peptide to adding each IAPP peptide to the cells was uniform to ensure that each sample was incubated for an equal amount of time with each IAPP peptide. IAPP peptides were added to cells and incubated for 46 hours at 37° C. Post-incubation, the media in each well was replaced by fresh DMEM/F-12 without phenol red. MTT (3-(4,5-dimethyl-2-thiazolyl)-2,5-diphenyl-tetrazolium bromide) was added into each well and incubated at 37° C. for 2 hours. Formazan crystals, formed on the bottom of the wells, were re-suspended in solubilization buffer (20% SDS and 50% dimethylformamide). The absorbance in each well was taken at 570 nm using a Multiskan FC Microplate Photometer (Thermos Fisher Scientific). Media were obtained from ATCC. All incubations took place in a water jacketed incubator in 5% carbon dioxide at 37° C. (Shell Lab).
# The MTT viability assay was used to measure cell viability of RIN-m cells upon addition of hIAPP alone, the addition of each animal IAPP peptide alone, and hIAPP mixed with each animal IAPP peptide (results shown in FIG. 5). RIN-m cells alone were used as a control and set to 100% cell viability. […] Addition of raccoon IAPP to hIAPP increased the cell viability from 55% to an average of 72% (p=0.005705). Addition of chicken IAPP variant to hIAPP increased cell viability to an average of 76% (p=0.013556).
# [1] = AFM of peptide alone (self-aggregation / fibril formation); assay type: physicochemical; conditions: for aggregation / fibril formation of peptide alone, AFM: incubated 40 minutes at 37° C. with shaking
# Procedure: (§1) Samples labeled with hIAPP contained 40 μM hIAPP. The sample with pramlintide and hIAPP contained a 2:1 molar mixture (80 μM Pramlintide mixed with 40 μM hIAPP). The samples with raccoon IAPP and Pramlintide alone contained 40 μM of the indicated peptides. Each sample was incubated for 40 minutes at 37° C. with shaking; conditions known to promote hIAPP amyloid formation. All scans show raw data with no flattening and are […].
# (§2) Samples of hIAPP with or without animal IAPP were prepared as described in Example 1 and were then incubated with shaking at 37° C. for 40 minutes. After this incubation, 17 μL of each sample was deposited onto freshly cleaved mica. Samples were incubated for 5 minutes at room temperature before washing with 200 μL sterile water. After drying, the samples were scanned using an MFP-3D atomic force microscope (Asylum Research) set on A/C mode and a 240 m silicon cantilever (Olympus).
# (§3) Many of the animal IAPP variants are known to likewise form fibrils and yield amyloid-plaques when scanned via AFM. […] This is in spite of the fact that all of these IAPP peptides (except polar bear IAPP) are known to aggregate and form fibrils themselves under these or similar conditions
# human IAPP (hIAPP) [2] = target: T1, human IAPP (hIAPP) (Homo sapiens, UniProt P10997); test: Thioflavin T binding assay of hIAPP aggregation when mixed with IAPP peptides; assay type: biochemical; conditions: for inhibition of hIAPP aggregation, thioflavin T binding: hIAPP mixed with peptide, incubated at 37° C. with shaking
# T1 construct: This 37 amino acid polypeptide is co-secreted from pancreatic β-islet cells with insulin
# T1 sequence (P10997 34-70 limits assumed): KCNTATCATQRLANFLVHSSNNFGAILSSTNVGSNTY
# Description: Any of a number of assays known to the art can be used to evaluate the ability of IAPP peptides to inhibit hIAPP aggregation and/or protect cells from hIAPP toxicity. Thioflavin T (ThT) binding is one such technique for identifying amyloid formation in real time. Human IAPP is known to bind thioflavin T during aggregation and amyloid formation, and upon binding to amyloid fibrils ThT will give a strong fluorescence signal at approximately 482 nm when excited at 450 nm. ThT fluorescence correlates linearly with amyloid concentration in a sample and therefore can be used to determine the amount of aggregation in a sample. This technique can therefore be used for identifying substances with amyloid-inhibiting potential when such substances are mixed with human IAPP under conditions known to result in the formation of aggregates by hIAPP. Determining the extent of aggregation can also be determined using other techniques, such as Atomic Force Microscopy (AFM), which can provide information about particle dimensions, shape, and substructure with nanometer resolution. In the foregoing assays and others that can be used by one of skill in the art, significant inhibition can be determined using a t-test by measuring the difference between hIAPP and hIAPP combined with an IAPP peptide.
# To identify IAPP peptides having inhibitory potential against hIAPP aggregation, the peptides shown in FIG. 1 from a number of species (cow, degu, guinea pig, horse, pig, rat, and sheep[…]) were mixed with hIAPP at a 2:1 molar ratio of animal peptide to hIAPP and incubated under conditions known to promote hIAPP aggregation and fibril formation. IAPP alone, or hIAPP mixed with an animal IAPP, was pipetted into a glass tube and the HFIP was removed under speed-vacuum. The resulting peptide sample was dissolved in 20 mM Tris buffer pH 7.4.
# 37 μM human IAPP was mixed with 75 μM of each indicated animal IAPP. Aggregation was initiated by incubating samples at 37° C. with shaking at 200 rpm for 40 minutes. At indicated time points, a 17 μL aliquot of each sample was mixed with 663 μL of 50.0 μM thioflavin T in 20 mM Tris buffer (pH 7.4). Thioflavin T fluorescence emission was then recorded at 488 nm using a Hitachi F-7000 fluorescence spectrophotometer.
# After 40 minutes, these samples were monitored for their ability to bind thioflavin T (see FIG. 2) and their ability to form fibrils as identified with atomic force microscopy.
# Human IAPP (37 μM) was mixed with each of the indicated Weddell seal variants (at 75 μM) and incubated for 30 minutes at 37° C. with shaking at 200 rpm. The Weddell seal IAPP peptides were likewise subjected to atomic force microscopy as described in Example 2.
# Human IAPP was mixed with each of the indicated raccoon variants and incubated at 37° C. with shaking.
# Human IAPP was mixed with each of the indicated chicken variants and incubated at 37° C. with shaking. […] However, it was able to protect cells in MTT assays, so it is believed to inhibit formation of toxic oligomers while having a lesser effect on inhibiting the formation of fibers (which are less toxic and less able to bind ThT).
# Human IAPP was mixed with each of the indicated chicken variants and incubated at 37° C. with shaking.
# human IAPP (hIAPP) [3] = target: T1, human IAPP (hIAPP); test: Atomic force microscopy (AFM) of hIAPP fibril formation when mixed with IAPP peptides; assay type: biochemical; conditions: for inhibition of hIAPP fibril formation, AFM: 37 μM hIAPP and 75 μM peptide, 37° C. with shaking for 40 minutes
# Procedure: as §1
# Each sample contained 37 μM hIAPP and 75 μM of the indicated peptide. Samples were incubated at 37° C. with shaking for 40 minutes. All scans show raw data with no flattening and are […].
# Each sample contained 37 μM hIAPP mixed with 37 μM of the indicated peptide. Samples were incubated at 37° C. with shaking for 30 minutes before depositing each sample onto freshly cleaved mica.
# as §2, §3
Compound,rescue / protection of cells from hIAPP toxicity (words) (RIN-m cells),"inhibition of hIAPP aggregation, thioflavin T binding (human IAPP (hIAPP) [2])","inhibition of hIAPP fibril formation, AFM (human IAPP (hIAPP) [3])",further results
"CC[C@H](C)[C@H](NC(=O)[C@@H]1CCCN1C(=O)CNC(=O)[C@H](Cc1ccccc1)NC(=O)[C@H](CC(N)=O)NC(=O)[C@H](CC(N)=O)NC(=O)[C@H](CO)NC(=O)[C@H](CO)NC(=O)[C@H](Cc1c[nH]cn1)NC(=O)[C@@H](NC(=O)[C@H](CC(C)C)NC(=O)[C@H](Cc1ccccc1)NC(=O)[C@H](CC(N)=O)NC(=O)[C@H](C)NC(=O)[C@H](CC(C)C)NC(=O)[C@H](CCCNC(=N)N)NC(=O)[C@H](CCC(N)=O)NC(=O)[C@@H](NC(=O)[C@H](C)NC(=O)[C@@H]1CSSC[C@H](NC(=O)[C@@H](N)CCCCN)C(=O)N[C@@H](CC(N)=O)C(=O)N[C@@H]([C@@H](C)O)C(=O)N[C@@H](C)C(=O)N[C@@H]([C@@H](C)O)C(=O)N1)[C@@H](C)O)C(C)C)C(=O)N[C@@H](CC(C)C)C(=O)N1CCC[C@H]1C(=O)N1CCC[C@H]1C(=O)N[C@H](C(=O)N[C@@H](CC(N)=O)C(=O)N[C@H](C(=O)NCC(=O)N[C@@H](CO)C(=O)N[C@@H](CC(N)=O)C(=O)N[C@H](C(=O)N[C@@H](Cc1ccc(O)cc1)C(N)=O)[C@@H](C)O)C(C)C)[C@@H](C)O [pramlintide, reference compound]",no ability to protect cells from the toxic effects of hIAPP,–,–,"toxicity of peptide to cells (RIN-m cells): toxic to the cells; aggregation propensity relative to comparator ([1]; comparison of pramlintide with the IAPP peptides): more amyloidogenic than the present IAPP peptides; aggregation / fibril formation of peptide alone, AFM [1]: formed amyloid fibers"
KCNTATCVTQRLANFLLRSSNNLGAIYSPTNVGSNTY (Procyon lotor mutation) [Rac_L26Y],improved cell viability in the presence of hIAPP,inhibited hIAPP aggregation,–,"rescue / protection of cells from hIAPP toxicity (words) (RIN-m cells; listed as Rac-L26Y): rescue cells from hIAPP toxicity; toxicity of peptide to cells (RIN-m cells): minimal inherent toxicity; inhibition of hIAPP fiber formation (human IAPP (hIAPP) [3]; FIG. 22: 37 μM hIAPP mixed with 37 μM peptide, 37° C. with shaking for 30 minutes): stood out for its ability to inhibit hIAPP fiber formation"
"CC[C@H](C)[C@H](NC(=O)[C@H](C)NC(=O)CNC(=O)[C@H](Cc1ccccc1)NC(=O)[C@H](CC(N)=O)NC(=O)[C@H](CC(N)=O)NC(=O)[C@H](CO)NC(=O)[C@H](CO)NC(=O)[C@H](Cc1c[nH]cn1)NC(=O)[C@@H](NC(=O)[C@H](CC(C)C)NC(=O)[C@H](Cc1ccccc1)NC(=O)[C@H](CC(N)=O)NC(=O)[C@H](C)NC(=O)[C@H](CC(C)C)NC(=O)[C@H](CCCNC(=N)N)NC(=O)[C@H](CCC(N)=O)NC(=O)[C@@H](NC(=O)[C@H](C)NC(=O)[C@@H]1CSSC[C@H](NC(=O)[C@@H](N)CCCCN)C(=O)N[C@@H](CC(N)=O)C(=O)N[C@@H]([C@@H](C)O)C(=O)N[C@@H](C)C(=O)N[C@@H]([C@@H](C)O)C(=O)N1)[C@@H](C)O)C(C)C)C(=O)N[C@@H](CC(C)C)C(=O)N[C@@H](CO)C(=O)N[C@@H](CO)C(=O)N[C@H](C(=O)N[C@@H](CC(N)=O)C(=O)N[C@H](C(=O)NCC(=O)N[C@@H](CO)C(=O)N[C@@H](CC(N)=O)C(=O)N[C@H](C(=O)N[C@@H](Cc1ccc(O)cc1)C(N)=O)[C@@H](C)O)C(C)C)[C@@H](C)O [hIAPP, reference compound]",–,–,–,"cell viability, peptide alone (RIN-m cells; 12.8 μM, RIN-m cells, 46 hours, cells alone set to 100%): 55+/−5%; aggregation / fibril formation of peptide alone, AFM [1]: forms high-density fibrils"
KCNTATCVTQRLADFLVRSSSNIGAIYSP (Gallus gallus truncation) [C1-29],rescued cells from hIAPP-induced cytotoxicity,inhibited hIAPP aggregation,amyloid fibers were formed and did,–
KCNTATCVTQRLANFLLRSSNNLGAIL (Procyon lotor truncation) [R1-27],rescued cells from hIAPP-induced cytotoxicity,inhibited hIAPP aggregation,did,–
KCNTATCVTQRLANFLLRSSNNLGAILSP (Procyon lotor truncation) [R1-29],rescued cells from hIAPP-induced cytotoxicity,inhibited hIAPP aggregation,did,–
KCNTATCVTQRLADFLVRSSSNIGAIY (Gallus gallus truncation) [C1-27],rescued cells from hIAPP-induced cytotoxicity,inhibited hIAPP aggregation,did,–
KCNTATCATQRLANFLVRSGNLFGAILSPTNVGSNTY (listed as Ursus maritimus) [polar bear IAPP],not capable of protecting RIN-m cells from the toxic effects of hIAPP,–,significant ability to prevent fiber formation,"inhibition of hIAPP aggregation (summary statement) (human IAPP (hIAPP) [2]; peptide mixed with hIAPP, no single assay (thioflavin T and AFM)): able to inhibit such aggregation"
